{"source": "a melting point compilation (Tetko et al.; mined from patent text by program, amines drawn as free bases though some values may be those of a salt)"}
{"units": {"melting point": "°C"}}
{"smiles": "c1csc(-c2nc(COc3ccc(CCCn4ccnc4)cc3)co2)c1", "melting point": "84 to 85"}
{"smiles": "CC(=O)Nc1ccc(Cl)cc1NC(C)=O", "melting point": 216}
{"smiles": "COc1ccc(N2CCN(c3ccc(C)cc3)CC2)c(-c2ccc(N(C)C)cc2)n1", "melting point": "170 to 173"}
{"smiles": "O=C(Nc1ccccn1)C(CC1CCCC1)c1ccc(Cl)c([N+](=O)[O-])c1", "note": "(stereo not drawn)", "melting point": "48 to 52"}
{"smiles": "CCCc1ccc(COc2ccc3c(c2)CCC(CN2CC(C(=O)O)C2)=C3C)c(OC)c1", "melting point": "158 to 163"}
{"smiles": "COC(=O)c1ccc2c(c1)C1(O)C(=O)c3ccccc3C1(O)O2", "note": "(stereo not drawn)", "melting point": "220 to 223"}
{"smiles": "COc1cc(Nc2nccc(-c3sc(CO)nc3C)n2)ccc1N1CCOCC1", "melting point": "180 to 181"}
{"smiles": "Nc1nc2ccccc2c2c1nc1n2C(COCc2ccc(F)cc2)COC1", "note": "(stereo not drawn)", "melting point": "134 to 137"}
{"smiles": "CCCc1c(C(=O)CC)c2ccc(C(N)=O)cc2n1Cc1ccccc1Cl", "melting point": "151 to 152"}
{"smiles": "CC(C)(C)Nc1nc2cc(Cl)c(Cl)cc2n1C1CC(CO)C(O)C1O", "note": "(stereo not drawn)", "melting point": "130 to 132"}
{"smiles": "c1ccc2c(OCCCCCCCCOc3cccc4ccccc34)cccc2c1", "melting point": 60}
{"smiles": "CCCCOC(=O)C(=O)Nc1ccccn1", "melting point": "35 to 37"}
{"smiles": "CN(C)c1ccc(/C=C/c2ccccc2F)c2ccccc12", "melting point": "56 to 58"}
{"smiles": "CC(C)n1nc(-c2c(-c3ccccc3)nn3ccc(OCCN4CCCC4=O)cc23)ccc1=O", "melting point": "162 to 163"}
{"smiles": "COC(=O)Cc1c(C(=O)OC)ccn1CCO", "melting point": "52 to 54"}
{"smiles": "OCc1cccc2c1SC(c1ccccc1)=CC2", "melting point": "120 to 122"}
{"smiles": "CC[Si](CC)(Cc1ccc(N(c2ccccc2)c2ccccc2)cc1)Cc1ccc(N(c2ccccc2)c2ccccc2)cc1", "melting point": "115 to 117"}
{"smiles": "O=C(Nc1ccccc1)OCC1c2ccccc2-c2ccccc21", "melting point": "243 to 244"}
{"smiles": "CC(=O)SCC(=Cc1ccc(Oc2ccccc2)cc1)C(=O)NCCC(=O)OCc1ccccc1", "melting point": 79}
{"smiles": "CO/N=C(/C(=O)O)c1ccc(OCCOc2ccc3ccccc3c2)s1", "melting point": "118 to 120"}
{"smiles": "NNC(=O)C(F)(F)c1cccc(Cl)n1", "melting point": "165 to 167"}
{"smiles": "C[C@@]1(F)[C@H](OC(=O)c2ccccc2)[C@@H](COC(=O)c2ccccc2)O[C@@H]1Br", "melting point": "59 to 61"}
{"smiles": "O=C(NS(=O)(=O)N1CCCCC1)C1=NN(c2ccc(Cl)cc2)C(c2ccccc2)C1", "note": "(stereo not drawn)", "melting point": "176 to 179"}
{"smiles": "CC(C)=C(C(=O)O)c1ccc(F)cc1", "melting point": "124 to 126"}
{"smiles": "COc1ccc(-c2ccc([N+](=O)[O-])cc2)cc1OC1CC2CCC1C2", "note": "(stereo not drawn)", "melting point": "134 to 135"}
{"smiles": "CC(F)(F)c1cccc(C[C@@H](NC(=O)c2ccc(F)c3ccccc23)[C@@H](O)c2ccc(F)cc2)c1", "note": "(racemic)", "melting point": "182 to 183"}
{"smiles": "O=C1CCC(N2Cc3c(OCc4cccc(CN5CCN(S(=O)(=O)C(F)(F)F)CC5)c4)cccc3C2=O)C(=O)N1", "note": "(stereo not drawn)", "melting point": "150 to 152"}
{"smiles": "C#CC1(O)CCC2C3CC(C)C4=CC(=O)CCC4C3CCC21CC", "note": "(stereo not drawn)", "melting point": "148 to 151"}
{"smiles": "C=C1NC(=O)OC12CCN(Cc1ccccc1)CC2", "melting point": "169 to 170"}
{"smiles": "N#Cc1cnc2sc(-c3ccc(C=O)cc3)cc2c1Nc1ccc2[nH]ccc2c1", "melting point": "> 260"}
{"smiles": "Cn1cnc(COc2nc3c(cc2C(C)(C)C)nnn3-c2cc(F)ccc2F)n1", "melting point": "154 to 157"}
{"smiles": "c1ccc(C(CCCc2c[nH]cn2)c2ccccc2)cc1", "melting point": "204 to 206"}
{"smiles": "Clc1ccc(CN2CCN=C2Cc2ccccc2)c(Cl)c1", "melting point": "185 to 189"}
{"smiles": "C=CCO[C@H]1[C@H](C)OC(=O)[C@@H](NC(=O)c2nccc(OC)c2OCc2ccccc2)COC(=O)[C@@H]1Cc1ccccc1", "melting point": "55 to 57"}
{"smiles": "CC(C)(C)C1OC1C(O)c1ccc(F)cc1", "note": "(stereo not drawn)", "melting point": "56 to 59"}
{"smiles": "O=C1NC(=O)c2c(-c3ccccc3[N+](=O)[O-])ccc(-c3ccccc3)c21", "melting point": "224 to 226"}
{"smiles": "Cc1cccc(-c2nc(-c3ccc(S(C)=O)cc3)sc2-c2cc(C)nc(C)c2)c1", "note": "(stereo not drawn)", "melting point": "133 to 134"}
{"smiles": "CCCc1c(OCc2cccn3c(=O)c(C#N)cnc23)ccc(C(C)=O)c1O", "melting point": "233 to 234"}
{"smiles": "CC1NC2=NCCN2C1c1ccccc1", "note": "(stereo not drawn)", "melting point": 179}
{"smiles": "CCC1Cc2ccc([N+](=O)[O-])cc2C=N1", "note": "(stereo not drawn)", "melting point": "61 to 62"}
{"smiles": "CCOC(=O)C(=O)c1nsc(NC(=O)c2ccccc2)n1", "melting point": "178 to 180"}
{"smiles": "C=C(F)C(=O)Oc1c(I)cc(C(F)(F)F)cc1I", "melting point": "93 to 95"}
{"smiles": "COc1cc(Cl)c2c(-c3ccccc3F)noc2c1", "melting point": "113 to 115"}
{"smiles": "Cc1[nH]c(=O)c(C#N)c2c1CC(c1ccccn1)CC2", "note": "(stereo not drawn)", "melting point": "> 300"}
{"smiles": "Cc1ccc(S(=O)(=O)OCC2Cc3cccc(-c4cc(C(F)(F)F)cc(C(F)(F)F)c4)c3O2)cc1", "note": "(stereo not drawn)", "melting point": "100 to 105"}
{"smiles": "C[C@]1(F)C(=O)O[C@H](COC(=O)c2ccc(Cl)cc2)[C@H]1OC(=O)c1ccc(Cl)cc1", "melting point": "138 to 141"}
{"smiles": "N#Cc1cc(Br)cc(CO)c1", "melting point": "108 to 109"}
{"smiles": "COC(=O)Cc1coc2cc(OCc3cc(-c4ccc(Cl)cc4)on3)ccc12", "melting point": "136 to 137"}
{"smiles": "CCCOc1ccc(S(=O)(=O)N2CCN(CCO)CC2)cc1C(=O)OC", "melting point": "88 to 89"}
{"smiles": "CC12CCC(=O)C(N)=C1CCC1C2CCC2(C)C(OC3CC3)CCC12", "note": "(stereo not drawn)", "melting point": "85 to 88"}
{"smiles": "COC(=O)c1cc2cc(C(=O)CN3CCN(c4ccncc4)CC3)ccc2o1", "melting point": "173 to 177"}
{"smiles": "O=C1CNc2ncc(I)cc2N1Cc1cccc(F)c1C(F)(F)F", "melting point": "> 200"}
{"smiles": "COC(=O)C1=C(C(=O)OC)C2(c3ccc(Cl)cc3Cl)CCC1O2", "note": "(stereo not drawn)", "melting point": 78}
{"smiles": "CCN(CC)Cc1ccccc1Oc1ccc(-c2cn(C3CCOC3)c3ncnc(N)c23)cc1", "note": "(stereo not drawn)", "melting point": "107 to 110"}
{"smiles": "N#Cc1ccc(-c2ccncc2OC2SCC(O)C(O)C2O)cc1", "note": "(stereo not drawn)", "melting point": 238}
{"smiles": "O=C(O)CCCCN1CCC(C(O)(c2ccc(F)cc2)c2ccc(F)cc2)CC1", "melting point": "105 to 107"}
{"smiles": "COc1cc(C=CC(=O)Nc2cnc3c(C)c(Cl)ccc3c2-c2ccccc2C)cc(OC)c1OC(C)=O", "melting point": "213 to 214"}
{"smiles": "CC1(C)Oc2ccc(C=O)cc2C(N2CCCC2=O)C1O", "note": "(stereo not drawn)", "melting point": "196 to 198"}
{"smiles": "CCOC(=O)C(=O)Nc1c([N+](=O)[O-])sc2ccc(F)cc12", "melting point": "129 to 131"}
{"smiles": "CN1C(=O)C(=O)c2cnccc21", "melting point": "140 to 142"}
{"smiles": "Nc1c(Cl)cc(C(O)CNCCCCCOCCc2cc3ccccc3o2)cc1Cl", "note": "(stereo not drawn)", "melting point": "49 to 52"}
{"smiles": "COc1ccc(/C=C/C(=O)Nc2ccccc2C(=O)O)cc1OC1CCCC1", "melting point": "211 to 217"}
{"smiles": "CCCO[C@@H]1C[C@@H](C(=O)NC)N(S(=O)(=O)c2ccc(Cl)c(CBr)c2Cl)C1", "melting point": 62}
{"smiles": "Brc1cc(-c2c3ccccc3c(Br)c3sc4ccccc4c23)cc(Br)c1OCc1nnn[nH]1", "melting point": "243 to 245"}
{"smiles": "CCCNC(=O)n1c(Cc2ccccc2)noc1=O", "melting point": 74}
{"smiles": "CNC(=O)C(Cc1ccc(OC)cc1)NC(=O)C(CC(C)C)C(CC(=O)NCC(=O)OC(C)(C)C)SC(C)=O", "note": "(stereo not drawn)", "melting point": "192 to 194"}
{"smiles": "O=C(Cn1c(-c2ccc(F)cc2)ncc(NC(=O)OCc2ccccc2)c1=O)NC(Cc1ccccc1)C(=O)C1=NCCO1", "note": "(stereo not drawn)", "melting point": "215 to 220"}
{"smiles": "O=C1C=CC(c2ccccc2)(c2ccccc2)C=C1O", "melting point": 145}
{"smiles": "CCOC(=O)/C=C\\n1c(=O)n2nc(C(=O)OCC)cc2c2ccc(Cl)cc21", "melting point": "215 to 217"}
{"smiles": "COc1ccc(-c2nc(-c3ccn4c3CCC4)[nH]c2-c2ccc(OC)cc2)cc1", "melting point": 238}
{"smiles": "COc1ccc2c(c1)C(=O)c1c-2c(Cl)nc2ccc(F)cc12", "melting point": "149 to 150"}
{"smiles": "COc1ccc2c(c1)c(-c1cc3cc(-c4ccccc4)cnc3[nH]1)cn2C", "melting point": "240 to 242"}
{"smiles": "CCCCC[C@H]1CC[C@H](c2ccc(C(N)=O)cc2)CC1", "melting point": "234 to 235"}
{"smiles": "O=C(O)CCc1cn(Cc2ccc(OCc3csc(-c4ccco4)n3)cc2)cc1-c1ccccc1", "melting point": "114 to 115"}
{"smiles": "CC(C)CCCC(C)C1CCC2C3CC=C4CC(OC(=O)C(C)(C)COP(=O)(O)OCCBr)CCC4(C)C3CCC12C", "note": "(stereo not drawn)", "melting point": 98}
{"smiles": "CC(C)C[C@@H](NC(=O)OC(C)(C)C)C(=O)N[C@H](C(=O)OCc1ccccc1)C(C)C", "melting point": "82 to 83"}
{"smiles": "COc1cc(OC)c(NC(=O)CBr)c(OC)c1", "melting point": "160 to 161"}
{"smiles": "O=C(CN1C(=O)C2(COc3ccc(Br)cc32)c2ccccc21)Nc1ccccc1F", "note": "(stereo not drawn)", "melting point": "100 to 103"}
{"smiles": "CC(=O)c1ccc(-c2ccc(F)cc2)c([N+](=O)[O-])c1", "melting point": "88 to 90"}
{"smiles": "CCOC(=O)C1=Cc2cc(Br)c(F)cc2OC1C(F)(F)F", "note": "(stereo not drawn)", "melting point": "98.5 to 100"}
{"smiles": "O=c1[nH]c(-c2c[nH]c3ccccc23)nc2ccc(N3CCCC3)cc12", "melting point": 298}
{"smiles": "CCC1(CC(O)(CBr)c2ccccc2)C(=O)c2ccccc2C1=O", "note": "(stereo not drawn)", "melting point": "89 to 92"}
{"smiles": "Cc1cc2c(s1)Oc1ccc(F)cc1NC2=O", "melting point": "274 to 275"}
{"smiles": "COc1cccc(N(CC(=O)N(C)c2ccccc2)C(=O)CNC(=O)Nc2cccc(C(C)O)c2)c1", "note": "(racemic)", "melting point": 115}
{"smiles": "COc1ccccc1N1CCN(CCCCN2CSCC2=O)CC1", "melting point": "80 to 81"}
{"smiles": "CC(C)(C)n1cnc(-c2ccc(F)cc2)c1-c1ccncc1", "melting point": 199}
{"smiles": "Cc1nc(C)c(Cl)c(NCc2nccc(SCCOCCn3c([N+](=O)[O-])cnc3C)c2C)n1", "melting point": "160 to 163"}
{"smiles": "CC(=O)Nc1ccc(Cn2cnc3c(-c4ccco4)ncnc32)cc1", "melting point": "278 to 280"}
{"smiles": "S=C(Nc1cccc(Cl)c1)N1CCOC1C1CCCCC1", "note": "(stereo not drawn)", "melting point": "117 to 119"}
{"smiles": "CC(O)c1cc2c(o1)C(=O)c1cccc(O)c1C2=O", "note": "(stereo not drawn)", "melting point": "148 to 149"}
{"smiles": "COc1ccc2cc(C(C)=O)cc(F)c2c1", "melting point": "96 to 97"}
{"smiles": "CNC(=O)c1ccc(N2CCN(Cc3cnc4c(c3)[nH]c(=O)n3cccc43)CC2)c(Cl)c1", "melting point": "260 to 266"}
{"smiles": "O=C(Cl)[C@@H]1CCC(=O)N1C(=O)OCc1ccccc1", "melting point": "65 to 70"}
{"smiles": "CCC(=O)Nc1cnc2ccccc2c1Cl", "melting point": "151 to 152"}
{"smiles": "CON1CCC2(CC1)OC(=O)C(c1cc(C)c(C)cc1C)=C2O", "melting point": "199 to 204"}
{"smiles": "CN(C)C(=O)Cn1c(-c2ccc(Cl)cc2)nc2cccnc21", "melting point": "212 to 213"}
{"smiles": "CN(C)CCOc1ccc2[nH]c(C(=O)N3CC(CCl)c4c3cc(OCc3ccccc3)c3ncccc43)cc2c1", "note": "(stereo not drawn)", "melting point": "176 to 179"}
{"smiles": "CC(=O)OCCOc1ncc(Cl)c(N)c1Cl", "melting point": "76 to 77"}
